Data reported in US7482027B2, “Composition for the prevention or treatment of diseases associated with angiogenesis” (AngioLab, Inc., priority 2005, dated 2009).

Test system: HUVEC tube formation
Assay: HUVEC tube formation inhibition assay
Assay type: cell-based, Human
Parameters: key to Tube formation inhibition: −: no inhibition of tube formation; +/−: rare inhibition of tube formation; +: light inhibition of tube formation and slight tube cleavage; ++: significant inhibition of tube formation and heavy tube cleavage; +++: no tube formation
Settings: 50 μg/ml; for Tube formation inhibition: TABLE 2, HUVEC on Matrigel, 18 hours; for Inhibition of HUVEC tube formation (in words): text summary of TABLES 1 and 2
Description: Human umbilical vein endothelial cells (HUVECs) were isolated from freshly obtained cords after cesarean section according to Grants' method (Grants D S et al., Cell, 58, pp 923-943, 1989). The isolated HUVECs were grown in culture media comprising M-199 (Gibco BRL, 31100-035), 10% FBS, 50 μg/ml ECGS (Endothelial cell growth supplement, Sigma E2795), and 50 μg/ml heparin (Sigma H3149).
HUVECs isolated in REFERENCE EXAMPLE 1 were cultured within passage 5, and then were divided into 20,000 to 50,000 cells per well of 48 well plate coated with, Matrigel (BD Biosciences, Bedford, Mass.). Crude extracts, non-polar solvent extracts, or fractions of C. officinale of EXAMPLES 1 to 4 were added to the above HUVEC culture well at the concentration of 50 μg/ml, respectively, and DMSO was added as a control. They were grown with culture media of the above REFERENCE EXAMPLE 1.
After HUVECs were further incubated at 37° C. for 18 hours, tube formation was observed using microscope. The results were summarized in TABLES 1 and 2 (−: no inhibition of tube formation, +/− rare inhibition of tube formation, +: light inhibition of tube formation and slight tube cleavage, ++: significant inhibition of tube formation and heavy tube cleavage, +++: no tube formation).

Row | SMILES | Tube formation inhibition | Inhibition of HUVEC tube formation (in words)
1 | CCCCC1OC(=O)c2c(O)cccc21 (single isomer, unassigned) [AS44-C-2-C-b-III, 3-butyl-7-hydroxyphthalide] | +++ | strongly inhibited HUVEC tube formation
2 | C=CC(O)C#CC#CC(O)C=C (single isomer, unassigned) [AS44-C-2-D-b-IV, 1,9-decadiene-4,6-diyne-3,8-diol] | +++ | strongly inhibited HUVEC tube formation
